Columns and labels:
ER stressed SCG neurons = assay: Survival of tunicamycin-treated (ER stressed) SCG sympathetic neurons after microinjection; type: cell-based, mice; conditions: for survived neurons as % compared to neurons grown in the presence of NGF: Table 1A (FIG. 14), microinjected into cytoplasm, tunicamycin 2 μM, CDNF (400); for Fold change of survived neurons compared to neurons injected with PBS: data of Table 1 divided by values of PBS
Experimental: Non-neuronal cells were removed by extensive preplating. Almost pure neurons were cultured in polyornithine/laminin (Sigma)-coated 35-mm plastic dishes in the small-size standard microislands in the Neurobasal medium and B27 supplement (Invitrogen/Gibco) in the presence of 30 ng/ml mouse nerve growth factor (NGF) (Promega) for 5-6 days. NGF was deprived by extensive washing and addition of the function-blocking anti-NGF antibodies (Roche). The neurons were pressure-microinjected with special neuronal microinjection equipment (Hellman et al., 2011; Hamner et al., 2001; Lindholm et al., 2002; Sun et al., 2001; Yu et al., 2003)(Sun et al., 2001; Sun et al., 2003). For the survival assay, all neurons on the microislands were counted in the beginning (initial number) and the end (three days) of the experiment and expressed as % of initial.
Microinjection of the sympathetic neurons was performed as described earlier (Yu, L. Y., Jokitalo, E., Sun, Y. F., Mehlen, P., Lindholm, D., Saarma, M., and Arumae, U. (2003) J Cell Biol. 163, 987-997). Plasmids for CDNF have been described earlier. Briefly, newborn mouse SCG neurons were grown with NGF (Promega) for 5-6 days then the nuclei were microinjected with the expression plasmids for full-length (FL)-CDNF and C-CDNF together with a reporter plasmid for enhanced green fluorescent protein (EGFP), using vector concentration of 10 ng/ul in each experiment. […] For protein microinjection, recombinant full length (FL)-CDNF, C-CDNF proteins in PBS at 200 ng/ul were microinjected directly into the cytoplasm together with fluorescent reporter Dextran Texas Red (MW 70000 Da) (Invitrogen, Molecular Probes) that facilitates identification of the successfully injected neurons. Next day tunicamycin (2 μM) was added, and after 3 days the living fluorescent neurons were counted. Living fluorescent (EGFP-expressing or Dextran Texas Red-containing) neurons were “blindly” counted three days later and expressed as percent of initial living fluorescent neurons counted 2-3 hours after microinjection. The experiments with plasmids were repeated on independent cultures 5 times for plasmid experiment, whereas four independent protein injection experiments were performed. On average, 50-80 neurons were successfully injected per experimental group. The results were expressed as the mean±the SEM. Data of each experimental group was compared with control plasmid PCR3.1 (vector) or PBS (in the protein injection experiments) by one-way ANOVA and post hoc Dunnett's t test. The null hypothesis was rejected at p<0.05.

dopamine neurons = assay: Survival of TH-positive dopamine neurons in dissociated midbrain floor cultures; type: cell-based, mouse; conditions: for survived neurons as % compared to neurons grown in the presence of GDNF: Table 3A (FIG. 15), 5 days; for Fold change of survived neurons compared to neurons grown without growth factors: data of Table 3 divided by values of no factor
Experimental: To study the dopamine neurons (Yu et al., 2008; Yu and Arumae, 2008), the midbrain floors were dissected from the ventral mesencephali of 13.5-d-old NMRI strain mouse embryos. Tissues were incubated with 0.5% trypsin (ICN Biomedical), then mechanically dissociated using a large fire-polished Pasteur pipette. The neurons were grown on the poly-L-ornithine-coated (Sigma) 96-well culture plates in DMEM/F12 medium (Invitrogen) containing N2 supplement (Invitrogen) in the presence or absence of GDNF (100 ng/ml) or with CDNF, MANF, C-CDNF and C-MANF polypeptides at different concentrations for five days. Same amount of the neurons were plated to each well at the beginning of the experiments. The cultures without added neurotrophic factors served as the negative control. As the midbrain cultures contain several neuronal types, the cultures were fixed and immunostained with the antibodies to tyrosine hydroxylase (TH) (Millipore), a specific marker for the dopaminergic neurons. Images of each well were scanned by CellInsight™ and immunopositive neurons were counted by CellProfiler and CellProfiler analyst software. Data are expressed as a percentage of GDNF-maintained TH-positive neurons. All experiments were repeated at least three times on the independent cultures. The results were expressed as the mean the SEM and were tested for the significance by either one-way ANOVA and Tukey's post hoc test or by two-tailed Student's t-test. The null hypothesis was rejected at P≤0.05.

Sequence: TLDLASVDLRKMRVAELKQILHSWGEECRACAEKTDYVNLIQELAPKYAATHPKTEL (listed as Homo sapiens) [pep2]
- survived neurons as % compared to neurons grown in the presence of NGF (ER stressed SCG neurons; AVG of exp1-2): 77.52 % NGF
- survived neurons as % compared to neurons grown in the presence of NGF (ER stressed SCG neurons; exp1, counted after 3 days): 79.71 % NGF
- survived neurons as % compared to neurons grown in the presence of NGF (ER stressed SCG neurons; exp2, counted after 3 days): 75.32 % NGF
- Fold change of survived neurons compared to neurons injected with PBS (ER stressed SCG neurons; Table 2, AVG): 2.11 Fold to PBS
- Fold change of survived neurons compared to neurons injected with PBS (ER stressed SCG neurons; Table 2, exp1): 2.32 Fold to PBS
- Fold change of survived neurons compared to neurons injected with PBS (ER stressed SCG neurons; Table 2, exp2): 1.90 Fold to PBS
- survived neurons as % compared to neurons grown in the presence of GDNF (dopamine neurons; AVG, 1 ng/ml): 67.69 % GDNF
- survived neurons as % compared to neurons grown in the presence of GDNF (dopamine neurons; AVG, 10 ng/ml): 69.82 % GDNF
- survived neurons as % compared to neurons grown in the presence of GDNF (dopamine neurons; AVG, 100 ng/ml): 68.98 % GDNF
- survived neurons as % compared to neurons grown in the presence of GDNF (dopamine neurons; AVG, 1000 ng/ml): 66.30 % GDNF
- survived neurons as % compared to neurons grown in the presence of GDNF (dopamine neurons; exp1, 1 ng/ml): 81.18 % GDNF
- survived neurons as % compared to neurons grown in the presence of GDNF (dopamine neurons; exp1, 10 ng/ml): 74.74 % GDNF
- survived neurons as % compared to neurons grown in the presence of GDNF (dopamine neurons; exp1, 100 ng/ml): 81.00 % GDNF
- survived neurons as % compared to neurons grown in the presence of GDNF (dopamine neurons; exp1, 1000 ng/ml): 83.01 % GDNF
- survived neurons as % compared to neurons grown in the presence of GDNF (dopamine neurons; exp2, 1 ng/ml): 52.61 % GDNF
- survived neurons as % compared to neurons grown in the presence of GDNF (dopamine neurons; exp2, 10 ng/ml): 58.93 % GDNF
- survived neurons as % compared to neurons grown in the presence of GDNF (dopamine neurons; exp2, 100 ng/ml): 47.98 % GDNF
- survived neurons as % compared to neurons grown in the presence of GDNF (dopamine neurons; exp2, 1000 ng/ml): 52.95 % GDNF
- survived neurons as % compared to neurons grown in the presence of GDNF (dopamine neurons; exp3, 1 ng/ml): 69.28 % GDNF
- survived neurons as % compared to neurons grown in the presence of GDNF (dopamine neurons; exp3, 10 ng/ml): 75.80 % GDNF
- survived neurons as % compared to neurons grown in the presence of GDNF (dopamine neurons; exp3, 100 ng/ml): 77.95 % GDNF
- survived neurons as % compared to neurons grown in the presence of GDNF (dopamine neurons; exp3, 1000 ng/ml): 62.94 % GDNF
- Fold change of survived neurons compared to neurons grown without growth factors (dopamine neurons; Table 4, AVG, 1 ng/ml): 1.11 fold
- Fold change of survived neurons compared to neurons grown without growth factors (dopamine neurons; Table 4, AVG, 10 ng/ml): 1.14 fold
- Fold change of survived neurons compared to neurons grown without growth factors (dopamine neurons; Table 4, AVG, 100 ng/ml): 1.13 fold
- Fold change of survived neurons compared to neurons grown without growth factors (dopamine neurons; Table 4, AVG, 1000 ng/ml): 1.09 fold
- Fold change of survived neurons compared to neurons grown without growth factors (dopamine neurons; Table 4, exp1, 1 ng/ml): 1.42 fold
- Fold change of survived neurons compared to neurons grown without growth factors (dopamine neurons; Table 4, exp1, 10 ng/ml): 1.31 fold
- Fold change of survived neurons compared to neurons grown without growth factors (dopamine neurons; Table 4, exp1, 100 ng/ml): 1.42 fold
- Fold change of survived neurons compared to neurons grown without growth factors (dopamine neurons; Table 4, exp1, 1000 ng/ml): 1.45 fold
- Fold change of survived neurons compared to neurons grown without growth factors (dopamine neurons; Table 4, exp2, 1 ng/ml): 0.83 fold
- Fold change of survived neurons compared to neurons grown without growth factors (dopamine neurons; Table 4, exp2, 10 ng/ml): 0.93 fold
- Fold change of survived neurons compared to neurons grown without growth factors (dopamine neurons; Table 4, exp2, 100 ng/ml): 0.76 fold
- Fold change of survived neurons compared to neurons grown without growth factors (dopamine neurons; Table 4, exp2, 1000 ng/ml): 0.84 fold
- Fold change of survived neurons compared to neurons grown without growth factors (dopamine neurons; Table 4, exp3, 1 ng/ml): 1.07 fold
- Fold change of survived neurons compared to neurons grown without growth factors (dopamine neurons; Table 4, exp3, 10 ng/ml): 1.17 fold
- Fold change of survived neurons compared to neurons grown without growth factors (dopamine neurons; Table 4, exp3, 100 ng/ml): 1.20 fold
- Fold change of survived neurons compared to neurons grown without growth factors (dopamine neurons; Table 4, exp3, 1000 ng/ml): 0.97 fold

Reference: patent US12479895B2, “C-terminal CDNF and MANF fragments, pharmaceutical compositions comprising same and uses thereof” (MyNeuroCure Oy, priority 2018, dated 2025)
